Molecules are shown by their SMILES. “Also recorded” adds a separate entry of the source. Like-named read-outs stand apart in the source and are kept apart here.

One series has as its system convulsions. Conditions: WO 95/18617 and WO 96/21640; cited from earlier work.
Series [1] can be described thus: horizontal screen test in mouse (impaired motor function, neurotoxicity; therapeutic index). Type of series: in vivo. The note with it: po, mouse. Here is the method:
(§1) In this model mice are placed individually on top of a squire wire screen which is mounted horizontally on a metal rod, which is then rotated 180° so that mice are on the bottom of the screens. Impairment of the motor function is observed from the number of animals that falls from the screen or fail to climb to the top of the screens. The medial neurological toxic dose (TD50) is than calculated as above. The ratio of TD50 and ED50 refers to the therapeutic index (T.I.) for each compound. The T.I. is used to show a useful separation between neurotoxicity and antiepileptic activity. The larger the T.I. would indicate a better separation between the above activities and a good profile as anticonvulsants.

The test system of the next series is motor function, mouse. Described as above. Type of series: in vivo. The note with it: for neurotoxicity / impairment of motor coordination (in words) / T.I. (in words): mouse; for neurotoxicity / impairment of motor coordination (in words): p.o., horizontal screen; for T.I. (therapeutic index): ratio of TD50 (horizontal screen) and ED50 (MES), mouse p.o.; for T.I. (in words): TD50/ED50. Here is the method:
as §1

The subject of series [2] is tonic hind limb extensions (maximal electroshock), mouse. The series is described as follows: maximal electroshock (MES) test in mouse, suppression of tonic hind limb extensions. Type of series: in vivo. The note with it: for ED50: po, 1 h, read-out: ED50 MES.
Protocol: The compounds of the invention were evaluated in some pharmacological tests in order to investigate their potential anticonvulsant activity. To this end, compounds were screened in the maximal electroshock (MES) test. […] Briefly, a 60 Hz alternate current (mice 50 mA, rats 150 mA) was delivered for 0.2 sec through corneal electrods by means of an electrical stimulator. […] Groups of 10 animals per dose were used and the ED50 was calculated from the dose-effect curve accordingly to Litchfield and Wilcoxon (J. Pharmacol. Exp. Ther., 96 (1949), 99-113).
Series [3] has as its system electro-shock convulsions, mouse. The note with it: claimed in WO 94/22808; cited from earlier work.
In series [4] the test system is tonic hind limb extensions (maximal electroshock), rat. The series is described as follows: maximal electroshock (MES) test in rat, incl. time course of anticonvulsant activity. Type of series: in vivo. The note with it: for Duration of action (time at which the protection is statistically significant) / Peak of activity (time of the maximal effect): MES, equiactive dose; for Duration of action (time at which the protection is statistically significant) / Peak of activity (time of the maximal effect) / ED50 / anticonvulsant activity in rat MES (in words): rat; for Duration of action (time at which the protection is statistically significant) / Peak of activity (time of the maximal effect) / anticonvulsant activity in rat MES (in words): p.o.; for ED50: po. Here is the method:
The compounds of the invention were evaluated in some pharmacological tests in order to investigate their potential anticonvulsant activity. To this end, compounds were screened in the maximal electroshock (MES) test. This model is widely used to assess the efficacy of antiepileptic agents against generalized and partial seizures. This study was performed in both rat and mouse by using the experimental procedure described in W. Losher et al., Epilepsy Res., 2 (1988), 145-181. Briefly, a 60 Hz alternate current (mice 50 mA, rats 150 mA) was delivered for 0.2 sec through corneal electrods by means of an electrical stimulator. […] Groups of 10 animals per dose were used and the ED50 was calculated from the dose-effect curve accordingly to Litchfield and Wilcoxon (J. Pharmacol. Exp. Ther., 96 (1949), 99-113).
In the rat MES model only the time course of anticonvulsant activity was evaluated. Groups of 10 rats were treated at their equiactive dose 30, 60, 120, 240, 360 and 480 min before the establishment of the electroshock. The peak of anticonvulsant activity and the duration of action were then evaluated.

For series [5], the system named is tonic convulsions induced by bicuculline, mouse. The series is described as follows: bicuculline-induced tonic convulsions in mouse. It is filed as in vivo. Conditions: for anticonvulsant activity against bicuculline (in words): p.o.; for ED50: po, bicuculline s.c. Here is the method:
Further to the MES test in mouse, some compounds were also evaluated in the MES test in rat and in a chemical model of tonic convulsions induced by bicuculline accordingly to the procedure described in Swinyard E. A. et al., Antiepileptic Drugs, 3rd Edition, Raven Press, New York (1989).
As reference compound FCE 26743 (S)-2-(4-(3-fluorobenzyloxy)benzylamino)propanamide was used, disclosed in the prior art in EP-B1-0400495.

The conditions of series [6]: in vivo; cited from earlier work.
[7] abbreviates: horizontal screen test, p.o., HCl salts, read-out: TD50 Horizontal screen.
The mark [8] stands for this setting: mouse, p.o., 60 min after administration, HCl salts.
[9] abbreviates: in vivo, p.o., HCl salts, read-out: TD50 Horizontal screen.

Consider `NC(=O)CNC1CCc2ccccc21` (racemic) [racemic N-(2-acetamido)-1-aminoindan, N-(2-acetamido)-1-aminoindan], for which, in the series with convulsions, the “anticonvulsant activity (in words)” value was “not very effective” and the “therapeutic index (in words)” value is listed as “don't seem endowed with a particularly favorable therapeutic index”.

`C[C@H](NC1Cc2ccccc2C1)C(N)=O` [CHF 3431, (S) 2-(2-indanylamino)propionamide]: the TD50 (commonly the 50% point of the dose-response relation for the toxic effect studied) in series [1] (setting [7]) worked out at 251 mg/kg. In the series with motor function, mouse, the “neurotoxicity / impairment of motor coordination (in words)” value (“neurotoxicity / impairment” below) is “more neurotoxic” and the “T.I. (therapeutic index)” value stood at 11. In addition, in series [2] (mouse, p.o.), the “anticonvulsant activity / potency in MES (in words)” value (from here on “anticonvulsant activity / potency”) is recorded as “more potent in inhibiting MES”. The ED50 – broadly, the midpoint of the dose-response relation – in series [2] (setting [8]) came out at 22 mg/kg.

For the compound `Cl.NC(=O)CNC1Cc2ccccc2C1` [CHF 3381, 2-(2-indanylamino)acetamide hydrochloride], the TD50 in series [1] (setting [9]) was determined as 274 mg/kg. In the series on motor function, mouse, the “T.I. (in words)” value is “higher T.I. than the prior art 1-aminoindane compound 2”, the “neurotoxicity / impairment” value is given as “more neurotoxic” and the “T.I. (therapeutic index)” value is recorded as 13. For the same compound, the ED50 in series [2] (Mus musculus) was determined as 21 mg/kg. Besides, the “anticonvulsant activity / potency” value in series [2] (mouse, p.o., hydrochloride) is on record as “more potent in inhibiting MES; also recorded: more potent as an anticonvulsant than the 1-aminoindane of the prior art”.

In turn, `CS(=O)(=O)O.NC(=O)C(CO)NCc1ccc(OCCCc2ccccc2)cc1` (stereo not shown) [FCE 28245, 3-hydroxy-2-(4-(3-phenylpropyloxy)benzylamino)propanamide methanesulphonate, reference compound] came in with a TD50 in series [1] (in vivo) of 1670 mg/kg. Also, the “T.I. (therapeutic index)” value in the series on motor function, mouse turned out to be 9. In series [3], the “anticonvulsant activity in electro-shock convulsions (in words)” value is reported as “claimed to be active”. Also, in series [2] (setting [8]), the 50% effective dose (ED50) stood at 180 mg/kg.

In the case of `NC(=O)[C@H](CO)N[C@@H]1CCc2ccccc2C1` [CHF 2991], the TD50 in series [1] (setting [7]) turned out to be 1100 mg/kg. Besides, the “T.I. (therapeutic index)” value in the series on motor function, mouse came to 29. In addition, in series [2] (mouse, p.o.), the “anticonvulsant activity / potency” value is “A good profile of anticonvulsant activity”. Moreover, the ED50 in series [2] (setting [8]) was determined as 38 mg/kg.

Regarding `CN(C1Cc2ccccc2C1)[C@H](CO)C(N)=O.Cl` [CHF 3440, (R)-3-hydroxy-2-(N-methyl-2-indanylamino)propanamide hydrochloride], the TD50 in series [1] (setting [9]) stood at 689 mg/kg. For the same compound, in the series on motor function, mouse, the “neurotoxicity / impairment” value is recorded as “increase of the neurotoxicity” and the “T.I. (therapeutic index)” value came to 20. Moreover, the “anticonvulsant activity / potency” value in series [2] (mouse, p.o.) is on record as “same anticonvulsant activity”. Besides, the ED50 in series [2] (setting [8]) is 35 mg/kg.

Consider `CC(NC1CCc2ccccc21)C(N)=O` (stereo not shown) [N-(2-propionamido)-1-aminoindan], for which, in the series with convulsions, the “anticonvulsant activity (in words)” value is listed as “not very effective” and the “therapeutic index (in words)” value is “don't seem endowed with a particularly favorable therapeutic index”.

As for `Cl.NC(=O)[C@H](CO)NC1Cc2ccccc2C1` [CHF 2993, (S)-3-hydroxy-2-(2-indanylamino)propanamide hydrochloride], the TD50 in series [1] (setting [9]) stood at 1170 mg/kg. The “T.I. (therapeutic index)” value in the series on motor function, mouse is given as 27. In addition, the “duration of action (in words)” value in series [4] (MES time course) is given as “longest duration of action”. Also, in series [4], the “Duration of action (time at which the protection is statistically significant)” value was found to be 6 h, the “Peak of activity (time of the maximal effect)” value (from here on “Peak of activity”) is 3 h, the ED50 stood at 31 mg/kg and the “anticonvulsant activity in rat MES (in words)” value is recorded as “anticonvulsant activity close to that found in the same model in mouse”. In series [5], the “anticonvulsant activity against bicuculline (in words)” value is listed as “in the same order of potency of their MES anticonvulsant activity” and the ED50 stood at 65 mg/kg. In addition, the “anticonvulsant activity / potency” value in series [2] (mouse, p.o.) is “equipotent in the MES test”. Moreover, in series [2] (setting [8]), the ED50 was determined as 44 mg/kg.

On to `O=C1NC(=O)C(c2ccccc2)(c2ccccc2)N1` [phenytoin], for which the “therapeutic index (in words)” value in series [6] is given as “smaller therapeutic indexes”.

For the compound `NC(=O)CNC1CCc2ccc(F)cc21` (stereo not shown) [N-(2-acetamido)-6-fluoro-1-aminoindan], in the series with convulsions, the “anticonvulsant activity (in words)” value is reported as “not very effective” and the “therapeutic index (in words)” value was “don't seem endowed with a particularly favorable therapeutic index”.

In series [1] (in vivo), `NC(=O)CN[C@H]1CCc2ccccc21` [TEVA Comp. 2, (S)-2-(indanylamino)acetamide, reference compound] showed a TD50 of 299 mg/kg. The “T.I. (therapeutic index)” value in the series on motor function, mouse is recorded as 8. Moreover, in series [2] (setting [8]), the ED50 is 38 mg/kg.

For `NC(=O)[C@@H](CO)NC1Cc2ccccc2C1` [CHF 2996], the TD50 in series [1] (setting [7]) was more than 1500 mg/kg. In addition, in the series with motor function, mouse, the “T.I. (in words)” value is reported as “higher T.I”, the “neurotoxicity / impairment” value is on record as “low value of neurotoxicity” and the “T.I. (therapeutic index)” value is reported as 44. Further, in series [4], the “Duration of action (time at which the protection is statistically significant)” value came to 2 h, the “Peak of activity” value amounted to 1 h, the 50% effective dose (ED50) amounted to 32 mg/kg and the “anticonvulsant activity in rat MES (in words)” value is reported as “anticonvulsant activity close to that found in the same model in mouse”. Besides, the “anticonvulsant activity / potency” value in series [2] (mouse, p.o.) is “equipotent in the MES test”. For the same compound, the ED50 in series [2] (setting [8]) came to 34 mg/kg.

As for `C[C@H](NCc1ccc(OCc2cccc(F)c2)cc1)C(N)=O` [FCE 26743, (S)-2-(4-(3-fluorobenzyloxy)benzylamino)propanamide, reference compound], in series [4], the “Duration of action (time at which the protection is statistically significant)” value worked out at 1 h, the “Peak of activity” value amounted to 0.5 h, the ED50 came out at 11 mg/kg and the “anticonvulsant activity in rat MES (in words)” value is listed as “anticonvulsant activity close to that found in the same model in mouse”. Besides, in series [5], the “anticonvulsant activity against bicuculline (in words)” value is “in the same order of potency of their MES anticonvulsant activity” and the 50% effect level (ED50) was put at a dose of 20 mg/kg.

As to `NC(=O)[C@@H](CO)N[C@H]1CCc2ccccc2C1` [CHF 2983, 3-hydroxy-2-(R)-(1,2,3,4-tetrahydro-naphthalen-2-(S)ylamino)propanamide], the TD50 in series [1] (setting [7]) came out at 1300 mg/kg. Further, the “T.I. (therapeutic index)” value in the series on motor function, mouse is on record as 30. In series [4], the “Duration of action (time at which the protection is statistically significant)” value was 2 h, the “Peak of activity” value was 1 h, the 50% effective dose (ED50) was 19 mg/kg and the “anticonvulsant activity in rat MES (in words)” value is reported as “more potent”. In series [5], the “anticonvulsant activity against bicuculline (in words)” value is listed as “in the same order of potency of their MES anticonvulsant activity” and the 50% effect level (ED50) was put at a dose of 62 mg/kg. Besides, in series [2] (mouse, p.o.), the “anticonvulsant activity / potency” value is “A good profile of anticonvulsant activity”. For the same compound, the ED50 in series [2] (setting [8]) amounted to 43 mg/kg.

For `NC(=O)N1c2ccccc2C=Cc2ccccc21` [carbamazepine], the “therapeutic index (in words)” value in series [6] was “smaller therapeutic indexes”.

Take `NC(=O)CN(CC(N)=O)C1CCc2ccccc21` (stereo not shown) [N,N-di-(2-acetamido)-1-aminoindan]: in the series with convulsions, the “anticonvulsant activity (in words)” value was “not very effective” and the “therapeutic index (in words)” value is on record as “don't seem endowed with a particularly favorable therapeutic index”.

With `NC(=O)CNC1CCCc2ccccc21` (stereo not shown) [N-(2-acetamido)-1-aminotetralin], in the series on convulsions, the “anticonvulsant activity (in words)” value is “not very effective” and the “therapeutic index (in words)” value is given as “don't seem endowed with a particularly favorable therapeutic index”.

(Values after patent publication US6114391A, “α-amino acid amides, preparation thereof and the therapeutical use thereof” (priority 1996, dated 2000).)
